{"source": "paper PMC3419577", "about": "(The Journal of neuroscience : the official journal of the …, 2012)", "tested_on": "cells in posterior cortex (V1), fresh frozen sections", "assay": "Binding of AP-fusion proteins on fresh-frozen brain sections", "set-up": "species or system mouse", "conditions": "AP staining, competitor with AP-NtHD", "data": [{"substance": "Full-length Otx2: non-tagged, full-length Otx2 used as competitor", "values": [{"measurement": "competition of AP-NtHD binding", "value": "disrupts AP-NtHD cortical binding"}]}]}
